# Experimental data: US20140163067A1, “Methods of Treatment of Limited Cognitive Impairment” (ENVIVO PHARMACEUTICALS, INC., priority 2011, published 2014)
# Tested on: subjects suffering from LCI
# Assay: Sensory electrophysiological responses (P50 gating, MMN, P300, N100) in LCI subjects
# Format: in vivo, human
# Conditions: compared with placebo, effects expected at a daily dose as low as 0.3 mg, dosed daily for 20 days
# Protocol: These effects are expected at a daily dose as low as 0.3 mg of (R)-7-chloro-N-(quinuclidin-3-yl)benzo[b]thiophene-2-carboxamide hydrochloride.
# Impairment of the ability of central nervous system to inhibit irrelevant sensory information has long been used as a model for understanding the deficits of attention seen in subjects. Two approaches to the measurement of this ability have commonly been employed (see (Heinrichs, 2004; Potter et al., 2006; Turetsky et al., 2007; Umbricht and Krljes, 2005) for reviews and meta-analyses): (1) the sensory gating paradigm in which the presentation of one stimulus normally suppresses the response elicited by a stimulus which rapidly follows it; and (2) the oddball or orienting paradigm in which a rare or unexpected event elicits a diminished response in subjects because attentional resources are inappropriately focused on less salient aspects of the environment.
# Two responses are commonly used assess brain activity: (1) the auditory P50 response elicited by the second member of a pair of clicks; and (2) the mismatch negativity (MMN) or N2 response evoked by a rarely occurring pure tone of no instructed relevance to the subject. Abnormalities in both P50 gating and the MMN have been reported in schizophrenic subjects. […]
compound,measurement,value
Cl.O=C(N[C@H]1CN2CCC1CC2)c1cc2cccc(Cl)c2s1 [(R)-7-chloro-N-(quinuclidin-3-yl)benzo[b]thiophene-2-carboxamide hydrochloride],sensory electrophysiological responses which correlate with improved cognitive and functional performance,can improve sensory electrophysiological responses
